We go through eight substances from patent US20130190240A1, “TUMOR GROWTH CONTROLLING METHOD TARGETING GALACTOSYLCERAMIDE EXPRESSION FACTOR-1” (priority 2010, published 2013).

The subject of data set [1] is COLO205 cells. The experiment in a line: growth in soft agar medium, COLO205 cells. The format is cell-based, human. As to conditions: oligopeptide introduced with Wr-T. Here is the method:
(§1) A cell culture solution (1.5 ml), in which agarose (low gelling temperature agarose) was dissolved at a concentration of 0.5% (w/v), was added to a 35 mm dish, cooled and gelled. Onto the resulting gel, a 0.33% agarose/cell culture medium containing 5.0×10^3 cells was added in a volume of 1.5 ml. After gelling, the cells were cultured in a CO2 incubator for 2 weeks. A 0.005% (w/v) aqueous solution of crystal violet (0.5 ml) was added onto the gel and incubated overnight to stain the cells. The 35 mm dish was scanned with a scanner, and colony counts were measured from the resulting image using image analysis software.
(§2) The GEF-1/C constituent oligopeptides were studied for their inhibitory effect on the growth of various tumor cells (B16 cells, HeLa cells, COLO205 cells, KATO III cells, A549 cells and PT45 cells) in soft agar medium.
(§3) In the same manner as shown in (2) above, the GEF-1/C constituent oligopeptides were introduced into various tumor cells and these cells were seeded together with a 0.33% soft agar medium.

Another data set concerns KOP2.16 cells. The data set can be described thus: tube formation inhibition test with GEF-1 siRNAs. The format is cell-based, mouse. As to conditions: siRNA 40 nmol with lipofectamine 2000; transfected KOP2.16 cells seeded on Matrigel. Here is the method: To confirm the in vitro anti-angiogenic effect of the GEF-1-siRNAs, a tube formation inhibition test was conducted using vascular endothelial KOP2.16 cells.
Each siRNA (40 nmol) and lipofectamine 2000 (10 μl) were mixed and then diluted to 1.0 ml with Opti-MEM I medium, and added to KOP2.16 cells in a 35 mm dish, which had been washed with Opti-MEM I medium. After 4 hours, 20% FBS-containing Opti-MEM I medium (1.0 ml) was added to the dish. After 48 hours, siRNA-transfected cells were collected and counted, and then suspended in Opti-MEM I medium and seeded again on Matrigel. After 18 to 48 hours, tube formation in the cells was observed. As negative controls, PBS (“None” in FIG. 15) and Stealth RNA Negative Control Medium GC Duplex (Invitrogen) (“siRNA-MNC” in FIG. 15) were used.

Data set [2] deals with COLO205 cells. The experiment in a line: in vivo anti-tumor growth effect of r9-OP10-11 on established COLO205 tumor in nude mice. Further details: species or system human. The note with it: tumor already formed; 35 nmol in PBS around the tumor, four weekly administrations. Here is the method:
1.0×10^6 COLO205 cells were inoculated subcutaneously into nude mice to prepare tumor of COLO205 cells. At 10 days after inoculation, a solution of r9-OP10-11 (35 nmol)/PBS was administered in a volume of 0.1 ml around the tumor whose diameter reached 5 to 6 mm (about 100 mm^3) At 7, 14 and 21 days after this administration, the same administration was repeated. The long and short axes of tumor were measured to calculate the tumor volume (=long axis×(short axis)^2×π/6). After the mice were finally euthanized with carbon dioxide gas, tumor in each mouse was photographed. Subsequently, the tumor was excised and measured for its wet weight.

The subject of data set [3] is SMAD transcriptional activity. The data set can be described thus: SMAD transcriptional activity (luciferase) with GEF-1/C constituent oligopeptides, B16 cells. It counts as cell-based, mouse. The note with it: oligopeptide 2.5 nmol with peptide transporter Wr-T, 48 hours. Here is the method:
Each GEF-1/C constituent oligopeptide (2.5 nmol) and a peptide transporter Wr-T (0.2 nmol) were mixed and then diluted to 0.1 ml with PBS, and mixed with a DNA solution for SMAD transcriptional activity testing (0.1 ml). To the respective cells (B16 cells and COLO205 cells) in a 48-well plate, which had been washed with Opti-MEM I medium, the mixture thus prepared was added in a volume of 0.2 ml per well. After 4 hours, 20% FBS/Opti-MEM I medium (0.2 ml) was added to each well. After 48 hours, the respective cells were lysed and the luciferase activity in each lysate was measured.

Data set [4] has as its system B16 cells. The experiment in a line: growth in soft agar medium, B16 cells. The format is cell-based, mouse. As to conditions: oligopeptide introduced with Wr-T. Here is the method:
as §1, §2, §3

A further data set deals with HeLa cells. The experiment in a line: growth in soft agar medium, HeLa cells. It counts as cell-based, human. The note with it: oligopeptide introduced with Wr-T. The method, then:
as §1, §2, §3

In data set [5] the test system is B16 cells. The data set can be described thus: in vivo anti-tumor growth effect of oligopeptides, B16 cells in nude mice. The arrangement: species or system mouse. The note with it: cells incubated with oligopeptide 25 nmol and Wr-T for 2 hours, then inoculated subcutaneously into nude mice. The method, then:
Each GEF-1/C constituent oligopeptide (25 nmol) and a peptide transporter Wr-T (2 nmol) were mixed and then diluted to 0.1 ml with PBS, to which each cell suspension prepared at 5.0×10^6 cells/ml Opti-MEM I medium was then added in a volume of 0.1 ml and mixed. This cell mixture was incubated in a CO2 incubator at 37° C. for 2 hours and then inoculated subcutaneously into nude mice. The long and short axes of tumor were measured at intervals of a week to calculate the tumor volume (=long axis×(short axis)^2×π/6). After the mice were finally euthanized with carbon dioxide gas, tumor in each mouse was photographed. Subsequently, the tumor was excised and measured for its wet weight.

Data set [6] has as its system B16 cells. The data set can be described thus: in vivo anti-tumor growth effect of siRNA#3, B16 tumor in nude mice. Further details: species or system mouse. As to conditions: siRNA#3/atelocollagen mixture injected near the tumor, three times at intervals of a week. Here is the method:
B 16 cells were inoculated subcutaneously into nude mice. After about a week when tumor reached about 5 mm diameter (about […]), an siRNA#3/atelocollagen mixture (0.2 ml) was injected near the tumor. Subsequently, the same siRNA#3/atelocollagen mixture was further injected twice near the tumor at intervals of a week.

A further data set concerns GEF-1 (Hrs/Hgs). The experiment in a line: GEF-1 (Hgs) expression level by Western blotting in shRNA-expressing B16 cells. It counts as cell-based, mouse. The note with it: B16 cells stably expressing the shRNA. The method, then: (§4) The respective shRNA expression vectors prepared in i) above were each introduced into B16 cells by gene transfer and subjected to drug selection using G418 drug (1 mg/ml). B16 cells expressing the respective shRNAs (B16/shRNA-74 cells, B16/shRNA-157 cells and B16/shRNA-207 cells) were finally obtained by cloning. These cells were confirmed for their GEF-1 expression levels by Western blotting and also examined for their ability of cell migration using a Boyden chamber.
Background: A western blot detects proteins with antibodies after separation by electrophoresis.

Data set [7] deals with B16 cells. The experiment in a line: cell migration ability of shRNA-expressing B16 cells, Boyden chamber. It counts as cell-based, mouse. The note with it: B16 cells stably expressing the shRNA. Here is the method: as §4

Square brackets hold non-standard residues; d marks the D form. Ends that are not written are not given here. Where only a bound is given, the exact number is not on record here.

With “OP10-10: GEF-1/C constituent oligopeptide KLEIMRQKKQ (SEQ ID NO: 63)”, in the data set on COLO205 cells [1], the “inhibition of growth ability in soft agar medium” value is recorded as “about 50%”.

For “siRNA#2: stealth RNAi against mouse Hgs; sense 5′-GGACGAUACUCGUCGACUUGUUCUU (SEQ ID NO: 32, 33) (antisense AAGAACAAGUCGACGAGUAUCGUCC; listed as RNA, chemistry not given here)”, the “inhibitory effect on tube formation” value with KOP2.16 cells is on record as “significant inhibitory effect”.

In the case of “r9-OP10-11: OP10-11 linked to a cell membrane permeable peptide, rrrrrrrrrGPGEYLEVQRQLA (r = D-arginine) (SEQ ID NO: 67) ([dR][dR][dR][dR][dR][dR][dR][dR][dR]GPGEYLEVQRQLA)”, in the data set with COLO205 cells [2], the “inhibition of growth of COLO205 cell tumor in tumor volume” value was “about 65%” and the “inhibition of growth of COLO205 cell tumor in tumor weight” value is “about 60%”.

For “OP10-11: GEF-1/C constituent oligopeptide EYLEVQRQLA (SEQ ID NO: 64)”, in data set [3], the “inhibition of SMAD transcriptional activity” value is on record as “about 50%”. Besides, the results for the “inhibition of growth ability in soft agar medium” value in the data set with B16 cells [4], in the data set on HeLa cells and with COLO205 cells [1] were “about 60%”, “about 20%” and “about 50%”, respectively. The “inhibition of B16 cell tumor growth” value in the data set on B16 cells [5] is reported as at least 50%.

Turning to “siRNA#3: stealth RNAi against mouse Hgs; sense 5′-UAGAAUGGACUCCCAGUCUGACUCC (SEQ ID NO: 34, 35) (antisense GGAGUCAGACUGGGAGUCCAUUCUA; listed as RNA, chemistry not given here)”, the “inhibitory effect on tube formation” value in the data set with KOP2.16 cells is recorded as “significant inhibitory effect”. Moreover, in the data set with B16 cells [6], the “tumor volume as compared to PBS or siRNA#3-scramble” value is reported as at most 50% and the “tumor weight as compared to PBS or siRNA#3-scramble” value was at most 50%.

“OP10-7: GEF-1/C constituent oligopeptide ALSALREEHR (SEQ ID NO: 60)”: the “inhibition of SMAD transcriptional activity” value in [3] is “about 50%”.

For the substance “OP10-12: GEF-1/C constituent oligopeptide IQRLQEQEKE (SEQ ID NO: 65)”, the “inhibition of SMAD transcriptional activity” value in data set [3] is listed as “about 50%”.

For “shRNA-157: shRNA against mouse GEF-1 (Hrs/Hgs) gene, Hgs157 template SEQ ID NO: 26; B16/shRNA-157 cells used as B16/shRNA cells (DNA CCGTTAATGATAAGAACCCACTTCAAGAGAGTGGGTTCTTATCATTAACTTTTTA)”, the “inhibition of Hgs expression” value in the data set with GEF-1 (Hrs/Hgs) worked out at 95%. Moreover, the “inhibition of cell migration ability” value in the data set with B16 cells [7] is recorded as 95%.
